These results are taken from PMC8151848, “Tambjamines and Prodiginines: Biocidal Activity against Trypanosoma cruzi” (Pharmaceutics, 2021).

Broadly, the IC50 is the concentration that inhibits the measured activity by half.

The subject of one data set is different parasites. Set-up: method as in PMID 32196500. The note with it: cited from earlier work.
The subject of data set [1] is epimastigotes of T. cruzi (CL strain, clone B5). Set-up: method as in PMID 31210760. The note with it: read-out: IC50 against epimastigotes of T. cruzi (earlier study); cited from earlier work.
In another data set the test system is Pseudomonas aeruginosa. The note with it: cited from earlier work.
The next data set relates to Escherichia coli. The note with it: cited from earlier work.
In the next data set the test system is Enterococcus faecalis. To be noted: cited from earlier work.
Data set [2] can be described thus: Transmembrane anion transport (chloride efflux) in POPC vesicles. To be noted: for anionophore activity (in words): chloride efflux. On the procedure:
The transmembrane anion transport activity of the compounds was explored in phospholipid (1-palmitoyl-2-oleoyl-sn-glycero-3-phosphocholine (POPC)) vesicles. Chloride efflux from chloride loaded vesicles was monitored using a chloride selective electrode. A solution of the studied compound in DMSO, usually 5 µL to avoid the influence of the organic solvent during the experiments, was added, and once the experiment was finished, a surfactant (Triton-X, 10% dispersion in water, 20 µL) was used to lyse the vesicles and release all the encapsulated chloride. This value was taken as 100% release and used as such. The experiments were repeated using different concentrations of the studied compounds and normalized chloride efflux at […] against the concentration of compound plotted. The data were then fitted with the Hill equation and an EC50 parameter, representing the concentration of compound eliciting 50% of chloride release was calculated. Assays in which the external medium was nitrate or bicarbonate were performed.

The subject of data set [3] is epimastigotes of T. cruzi (CL strain, clone B5). Nature of the data set: Epimastigote susceptibility assay (monotherapy). The class given is cell-based, Trypanosoma cruzi. To be noted: for IC50: Trypanosoma cruzi, CLB strain, 72 h at 28 °C, mean ± SD, read-out: IC50 (µM) in epimastigotes of T. cruzi; for activity against the extracellular and replicative forms of T. cruzi (in words): epimastigotes. On the procedure:
The CL-B5 strain was stably transfected with the Escherichia coli β-galactosidase gene (lacZ) and routinely maintained in exponential growth by weekly passages. Trypomastigotes of the CL-B5 strain were obtained as previously reported.
The screening assays were performed in 96-well microplates (WWR Int LLC) containing serially diluted concentrations of each compound and seeded with 2.5 × 10^5 epimastigotes/mL harvested during the exponential growth phase. Growth, medium, and drug blanks were used in each assay as controls. An internal control of the reference drug, benznidazole, was also included. After 72 h at 28 °C, 50 µL of the substrate chlorophenol red-β-D-galactopyranoside (CPRG; Roche) diluted in 0.9% Triton X-100 solution (EMD, Darmstadt, Germany) were added at a final concentration of 200 µM. Then, after 3 h at 37 °C, measurements were performed in a scanning multiwell spectrophotometer (ELISA Multiskan Reader, BioTek Instruments, Inc., Winooski, VT, USA) at 595 nm. Each concentration was tested in triplicate and the experiments were performed three times independently. The efficacy of the compounds was calculated by determining the percentage of epimastigote growth (% EG value) as follows:(1) % Epimastigote growth=(AE−AEB)/(AC−ACB)×100 where AE is the absorbance of the experimental group, AEB the absorbance of the drug blank, AC the absorbance of the control group, and ACB the absorbance of the culture medium blank. The IC50 values (the drug concentration that eliminates 50% of the parasites) were determined for each compound using the GraphPad Prism software (Version 5.0.0 for Windows, GraphPad Software, San Diego, CA, USA).

The subject of data set [4] is murine L-929 fibroblasts (NCTC clone 929). Nature of the data set: Cytotoxicity assay (resazurin) in L-929 fibroblasts. To be noted: Mus musculus, L929; read-out: IC50 (µM) L-929 cell growth inhibition. The class given is cell-based, mouse. From the text: (§1) Mouse L-929 fibroblasts (NCTC clone 929, ECACC 88102702) were used for both drug toxicity and infection assays. Cell line was obtained from Dr. Concepció Soler, Dept. Pathology & Experimental therapeutics, Faculty of Medicine and Health Sciences, University of Barcelona, Spain. Human hepatocarcinoma Hep G2 cells (American Type Culture Collection (ATCC HB-8065)) were employed only in the drug toxicity assays and were obtained from Dr. Neus Agell, Cell Biology Research Group, Faculty of Medicine and Health Sciences, University of Barcelona, Spain.
(§2) Cells were seeded by trypsinization in 96-well microplates (L-929: 4 × 10^3 cells/well; Hep G2: 1.5 × 10^4 cells/well) and incubated for 24 h at 37 °C to allow cell attachment. On the following day, the medium was discarded and replaced with a fresh medium containing the different concentrations of the drugs. Hep G2 cells were treated with concentrations of 100, 10, and 1 µM of the different drugs, while L-929 cells were treated with a wider range of concentrations in order to calculate the IC50 value (the drug concentration that inhibits 50% of cell growth). Medium, growth, and drug blanks were used in each test as controls. Plates were incubated again for another 24 h. After treatment, 20 µL of resazurin diluted in 1X phosphate-buffered saline (PBS; Sigma Aldrich) was added at a final concentration of 70 µM. The plates were incubated for another 24 h, after which fluorescence was measured in a microplate reader (FLUOstar OPTIMA, BMG LABTECH GmbH, Ortenberg, Germany) at an excitation wavelength of 530 nm and an emission wavelength of 590 nm. Each concentration was tested in triplicate and the experiments were repeated three times independently. Results indicated the percentage of toxicity (% T value). (3) % Toxicity=100−(AE−AEB)/(AC−ACB)×100 where AE is the absorbance of the experimental group, AEB the absorbance of the drug blank, AC the absorbance of the untreated cells, and ACB the absorbance of the culture medium blank. For the L-929 fibroblasts, the IC50 values (the drug concentration that inhibits 50% of cell growth) were calculated for each compound using the GraphPad Prism software.
(In general: The colour change of resazurin is a common sign of viable cells or microbes.)

Assay in data set [5]: as above
The data set is classed as cell-based, mouse. The note with it: mouse, L-929 fibroblasts (NCTC clone 929); L-929, 16 µM, n = 9; read-out: % Cytotoxicity ± SD.
Source text: as §1, §2

For data set [6] the following is noted: POPC vesicles, ref 2 (Gianotti et al., Int. J. Mol. Sci., 2020), cited from earlier work.
Another data set concerns Plasmodium yoelii. Set-up: method as in PMID 26305125. To be noted: murine model; cited from earlier work.
Setting [7] is: external bicarbonate, read-out: EC50 (µM) HCO3–/Cl–.
Setting [8] is: external nitrate, read-out: EC50 (µM) NO3–/Cl–.

Converted amounts (≈) assume the structure as drawn. Like-named read-outs stand apart in the source and are kept apart here. Where only a bound is given, the exact number is not on record here.

Turning to `CC1(C)CCC(CN2CCN(c3ccc(C(=O)NS(=O)(=O)c4ccc(NCC5CCOCC5)c([N+](=O)[O-])c4)c(Oc4cnc5[nH]ccc5c4)c3)CC2)=C(c2ccc(Cl)cc2)C1` [venetoclax], the “effect on the viability of different parasites (in words)” value with different parasites is “do not have an effect”.

On to `CCCCCC1=C/C(=C/c2[nH]c(-c3ccc[nH]3)cc2OC)N=C1C` [Prodigiosin, prodigiosin], for which the IC50 in data set [1] is no more than 800 nM. The “minimal inhibitory concentration (MIC)” value in the data set with Pseudomonas aeruginosa is 8 µM (≈ 2.59 µg/mL); with Escherichia coli it was 2 µM (≈ 0.647 µg/mL); in the data set with Enterococcus faecalis it was 2 µM (≈ 0.647 µg/mL). Also, the “anionophore activity (in words)” value in data set [2] is “most active anionophore”. The EC50 in data set [2] (setting [7]) was determined as 0.06 µM; in data set [2] (setting [8]), 0.002 µM.

In the case of `CC/N=C/c1[nH]c(-c2ccc[nH]2)c(CC)c1C` [MM5], in [3], the IC50 is 130 ± 34.7 µM; the “activity against the extracellular and replicative forms of T. cruzi (in words)” value was “did not show detectable levels of trypanocidal activity”. In addition, the “anionophore activity (in words)” value in [2] was “very limited activity”. For the same compound, the “EC50 (µM) HCO3–/Cl–” value in data set [2] (external bicarbonate) was “not active enough to calculate EC50 value”. For the same compound, the “EC50 (µM) NO3–/Cl–” value in data set [2] (external nitrate) is recorded as “not active enough to calculate EC50 value”.

Regarding `CCCCn1cc(-c2cc(OC)c(/C=C3\N=C(C)C=C3C)[nH]2)nn1` [EH123], the results for the IC50 in data set [4] and in [3] were 171.7 ± 0.5 µM and 199 ± 49.9 µM, respectively. The cytotoxicity at 24 h, 16 µM in [5] stood at 3.72 ± 1.14%. Besides, in data set [3] (IC50 for L-929 fibroblasts / IC50 for T. cruzi epimastigotes), the “Selectivity index (SI), Epimastigotes” value is given as 0.86. Moreover, in data set [3], the “activity against the extracellular and replicative forms of T. cruzi (in words)” value is listed as “did not show detectable levels of trypanocidal activity”. Besides, the values for the EC50 in [6] (setting [7]) and in data set [6] (setting [8]) were 1.91 µM and 0.024 µM, respectively.

As for `Cc1c(-c2ccc(N3CCc4cccc(C(=O)Nc5nc6ccccc6s5)c4C3)nc2C(=O)O)cnn1CC12CC3CC(CC(C3)C1)C2` [Compound A-1331852], the “effect on the viability of different parasites (in words)” value in the data set with different parasites was “do not have an effect”.

As for `Cc1c(-c2c(-c3ccc(F)o3)sc3ncnc(O[C@H](Cc4ccccc4OCc4ccnn4CC(F)(F)F)C(=O)O)c23)ccc(OCCN2CCN(C)CC2)c1Cl` [Compound S63845], the “effect on the viability of different parasites (in words)” value in the data set on different parasites is reported as “do not have an effect”.

On to `CCc1c(-c2ccc[nH]2)[nH]c(C=NC2CCCCCC2)c1C` [KAR425], for which the “in vivo activity against P. yoelii infection (in words)” value in the data set on Plasmodium yoelii is reported as “potent in vivo activity”.

Take `CC1(C)CCC(c2ccc(Cl)cc2)=C(CN2CCN(c3ccc(C(=O)NS(=O)(=O)c4ccc(N[C@H](CCN5CCOCC5)CSc5ccccc5)c(S(=O)(=O)C(F)(F)F)c4)cc3)CC2)C1` [navitoclax]: the “effect on the viability of different parasites (in words)” value with different parasites is reported as “do not have an effect”.

As to `Cc1nn(C)c(COc2ccc(N3CCN(S(=O)(=O)N(C)C)CC3)cc2)c1-c1cccc2c(CCCOc3cccc4ccccc34)c(C(=O)O)n(CCN3CCOCC3)c12` [Compound A-1210477], the “effect on the viability of different parasites (in words)” value in the data set on different parasites is “do not have an effect”.
